Assay results from article PMC4867306 (European journal of medicinal chemistry, 2016).
“Also recorded” adds a separate entry of the source. Where two headings read alike, the source gives them in different places.

What was measured:
[1] = target: T1, LAP (M17 leucine aminopeptidase) (Sus scrofa, UniProt P28839); details: originally measured activity; NI = no inhibition up to 0.8 mM inhibitor concentration; cited from earlier work
T1 sequence (P28839 33-519 limits assumed): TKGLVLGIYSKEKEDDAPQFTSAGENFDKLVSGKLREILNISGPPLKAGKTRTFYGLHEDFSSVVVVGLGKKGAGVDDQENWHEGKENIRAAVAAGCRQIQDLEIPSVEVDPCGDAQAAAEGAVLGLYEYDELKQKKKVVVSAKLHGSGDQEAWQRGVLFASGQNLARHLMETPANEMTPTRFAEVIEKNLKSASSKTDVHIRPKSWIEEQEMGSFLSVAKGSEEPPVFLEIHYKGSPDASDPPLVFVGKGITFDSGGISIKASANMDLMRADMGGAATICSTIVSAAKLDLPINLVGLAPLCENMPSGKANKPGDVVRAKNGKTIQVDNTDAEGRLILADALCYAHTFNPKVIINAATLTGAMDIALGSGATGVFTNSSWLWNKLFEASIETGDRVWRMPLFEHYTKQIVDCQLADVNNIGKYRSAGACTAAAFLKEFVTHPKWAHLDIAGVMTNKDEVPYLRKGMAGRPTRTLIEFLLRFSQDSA

[2] = target: T1, LAP (M17 leucine aminopeptidase); experiment: Inhibition of porcine kidney leucine aminopeptidase; assay type: biochemical
[3] = target: T2, NmAPN (M1 alanine aminopeptidase from Neisseria meningitidis) (Neisseria meningitidis, UniProt Q9JYV4)
T2 sequence (Q9JYV4 1-867): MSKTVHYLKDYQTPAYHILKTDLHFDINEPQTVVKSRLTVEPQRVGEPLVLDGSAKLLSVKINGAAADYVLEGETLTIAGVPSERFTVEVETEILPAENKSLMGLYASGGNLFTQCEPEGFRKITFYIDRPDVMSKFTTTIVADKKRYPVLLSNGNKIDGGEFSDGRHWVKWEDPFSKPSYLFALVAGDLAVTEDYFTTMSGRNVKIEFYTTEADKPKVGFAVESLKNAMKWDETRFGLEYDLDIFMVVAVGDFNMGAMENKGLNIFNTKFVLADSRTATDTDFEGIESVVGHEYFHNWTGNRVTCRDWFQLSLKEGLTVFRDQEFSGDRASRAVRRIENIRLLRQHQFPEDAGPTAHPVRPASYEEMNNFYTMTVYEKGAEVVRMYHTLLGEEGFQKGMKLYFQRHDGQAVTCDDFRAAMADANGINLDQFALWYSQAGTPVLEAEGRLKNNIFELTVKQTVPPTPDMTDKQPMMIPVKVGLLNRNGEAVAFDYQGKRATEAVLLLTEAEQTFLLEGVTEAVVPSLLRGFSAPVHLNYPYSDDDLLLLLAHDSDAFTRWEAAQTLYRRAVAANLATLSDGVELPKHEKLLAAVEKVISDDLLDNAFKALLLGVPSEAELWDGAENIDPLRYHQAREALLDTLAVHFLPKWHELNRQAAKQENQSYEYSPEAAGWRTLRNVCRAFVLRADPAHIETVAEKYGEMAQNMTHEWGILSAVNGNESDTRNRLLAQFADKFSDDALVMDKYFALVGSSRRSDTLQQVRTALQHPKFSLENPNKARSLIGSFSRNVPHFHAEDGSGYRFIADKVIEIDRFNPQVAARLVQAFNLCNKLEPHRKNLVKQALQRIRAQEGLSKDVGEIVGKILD

[4] = target: T2, NmAPN (M1 alanine aminopeptidase from Neisseria meningitidis); details: read-out: Ki NmAPN; cited from earlier work

For CCCNCC(N)P(=O)(O)O (centres unmarked) [1c], which “Ki LAP” value [1] is on record?
Its value is “inactive; also recorded: do not inhibit LAP at all”.

For CC(C)CNCC(N)P(=O)(O)O (centres unmarked) [1d], which “Ki LAP” value [1] is on record?
Its value is “inactive; also recorded: do not inhibit LAP at all”.

Which “Ki LAP” value [1] does the source give for NC(CNC1CCCCC1)P(=O)(O)O (centres unmarked) [1h, N-cyclohexyl-1,2-diaminoethylphosphonic acid] here?
Its value is “does not influence the LAP activity at all; also recorded: inactive; also recorded: do not inhibit LAP at all”.

For NC(CNCC1CCCO1)P(=O)(O)O (centres unmarked) [1k], which Ki [2] is on record?
Its Ki is 2.5 to 7 µM.

Which “improvement of affinity compared with non-modified analogue 1n” value [3] does the source give for Nc1ccc(CNCC(N)P(=O)(O)O)cc1 (centres unmarked) [1r] here?
The value was 3-to-4 fold.

Which “improvement of affinity compared with non-modified analogue 1n” value [3] does the source give for COc1ccc(CNCC(N)P(=O)(O)O)cc1 (centres unmarked) [1s] here?
The value was 3-to-4 fold.

Which Ki ([2]; read-out: Ki LAP, NI = no inhibition up to 0.8 mM inhibitor concentration) does the source give for NC(CN1CCOCC1)P(=O)(O)O (centres unmarked) [1w] here?
Its Ki is greater than 800 µM.

For NC(CCc1ccccc1)P(=O)(O)CC(Cc1ccccc1)C(=O)O (centres unmarked) [phosphinic analogue of hPhePhe], which Ki [4] is on record?
The Ki was 0.302 µM.
